IC50 data for 26 compounds are collected here from patent US20150065717A1, “NIPECOTIC ACID DERIVATIVE AND USE THEREOF FOR MEDICAL PURPOSES” (Toray Industries, Inc., priority 2012, published 2015).

By IC50 is commonly meant the midpoint of a concentration-inhibition curve.

The target in the experiment is T1, recombinant human sEH (Homo sapiens, UniProt P34913).
T1 construct: purchased Cayman
T1 sequence (P34913 1-555): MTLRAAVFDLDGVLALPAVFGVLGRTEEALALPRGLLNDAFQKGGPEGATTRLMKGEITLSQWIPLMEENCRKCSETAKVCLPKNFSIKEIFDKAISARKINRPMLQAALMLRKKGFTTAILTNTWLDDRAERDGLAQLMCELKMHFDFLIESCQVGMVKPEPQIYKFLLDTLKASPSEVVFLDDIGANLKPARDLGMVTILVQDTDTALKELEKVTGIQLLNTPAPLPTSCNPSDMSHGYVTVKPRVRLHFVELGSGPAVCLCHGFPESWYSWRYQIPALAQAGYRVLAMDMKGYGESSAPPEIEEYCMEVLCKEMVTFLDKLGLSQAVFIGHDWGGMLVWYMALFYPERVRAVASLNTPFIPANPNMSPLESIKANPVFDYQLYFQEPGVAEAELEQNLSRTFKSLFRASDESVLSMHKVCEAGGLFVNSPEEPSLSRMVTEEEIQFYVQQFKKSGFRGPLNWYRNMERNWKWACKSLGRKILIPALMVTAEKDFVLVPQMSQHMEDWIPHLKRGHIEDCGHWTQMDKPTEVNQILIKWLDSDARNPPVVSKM
The experiment in a line: In vitro evaluation test for sEH inhibitory activity. The class given is biochemical. The settings on record: recombinant human sEH 0.026 μg/mL, fluorescent substrate 6.25 μmol/L, room temperature. As to the method:
According to the method described in a known document (Analytical Biochemistry, 2005, vol. 343, p. 66-75), the sEH inhibitory activity of each nipecotic acid derivative (I) or a pharmaceutically acceptable salt thereof was evaluated using human sEH.
A recombinant human sEH (final concentration, 0.026 μg/mL; Cayman) was incubated with each test compound in 25 mM Bis-Tris-HCl buffer (pH 7.0) supplemented with 0.1 mg/mL BSA at room temperature for 30 minutes. Thereafter, cyano(6-methoxynaphthalen-2-yl)methyl 2-(3-phenyloxiran-2-yl)acetate (final concentration, 6.25 μmol/L; Cayman) was added thereto as a fluorescent substrate, and the resulting mixture was incubated at room temperature for 20 minutes. The reaction was then stopped by addition of ZnSO4 (final concentration, 0.2 mol/L), and the fluorescence intensity was measured (Fusion α (Packard); Excitation: 330 nm, Emission:485 nm).
The fluorescence intensity observed with addition of neither sEH nor a test compound was regarded as the sEH enzymatic reaction rate of 0%, and the fluorescence intensity observed with addition of sEH but without addition of a test compound was regarded as the sEH enzymatic reaction rate of 100%. From the obtained fluorescence intensity, the sEH enzymatic reaction rate of each test compound was calculated to determine IC50.

For `CC(C)(C(=O)N1CCC[C@@H](C(=O)NCc2ccc(C#N)cc2OC(F)(F)F)C1)n1cncn1` [Example Compound 36, (R)—N-(4-cyano-2-(trifluoromethoxy)benzyl)-1-(2-methyl-2-(1H-1,2,4-triazol-1-yl)propanoyl)piperidine-3-carboxamide], the IC50 came to 1.5 nM.
As to `CC(=O)N[C@@H](C(=O)N1CCC[C@@H](C(=O)NCc2ccc(Cl)cc2Cl)C1)C(C)(C)O` [Example Compound 39], the IC50 was determined as 0.7 nM.
For `CCCC(=O)NC1(C(=O)N2CCC[C@@H](C(=O)NCc3ccc(C#N)cc3OC(F)(F)F)C2)CCC1` [Example Compound 33, (R)-1-(1-butylamidocyclobutanecarbonyl)-N-(4-cyano-2-(trifluoromethoxy)benzyl)piperidine-3-carboxamide] the value was 2.4 nM.
Under `C[C@@H](O)C(=O)N1CCC[C@@H](C(=O)NCc2ccc(C#N)cc2OC(F)(F)F)C1` [Example Compound 42, (R)—N-(4-cyano-2-(trifluoromethoxy)benzyl)-1-((R)-2-hydroxypropanoyl)piperidine-3-carboxamide] stands 3.5 nM.
Consider `CC(C)(CO)C(=O)N1CCC[C@@H](C(=O)NCc2ccc(C#N)cc2OC(F)(F)F)C1` [Example Compound 19, (R)—N-(4-cyano-2-(trifluoromethoxy)benzyl)-1-(3-hydroxy-2,2-dimethylpropanoyl)piperidine-3-carboxamide], for which the IC50 was 1.3 nM.
In the case of `CC(C)[C@@H](O)C(=O)N1CCC[C@@H](C(=O)NCc2ccc(C#N)cc2OC(F)(F)F)C1` [Example Compound 44, (R)—N-(4-cyano-2-(trifluoromethoxy)benzyl)-1-((R)-2-hydroxy-3-methylbutanoyl)piperidine-3-carboxamide], the IC50 was 0.5 nM.
For `CC(C)(O)[C@@H](NS(C)(=O)=O)C(=O)N1CCC[C@@H](C(=O)NCc2ccc(C#N)cc2OC(F)(F)F)C1` [Example Compound 32, (R)—N-(4-cyano-2-(trifluoromethoxy)benzyl)-1-((R)-3-hydroxy-3-methyl-2-(methylsulfonamido)butanoyl)piperidine-3-carboxamide] the value was 1 nM; for `N#Cc1ccc(CNC(=O)[C@@H]2CCCN(C(=O)C3(NC(=O)CC4CC4)CCC3)C2)c(OC(F)(F)F)c1` [Example Compound 34, (R)—N-(4-cyano-2-(trifluoromethoxy)benzyl)-1-(1-(2-cyclopropylacetamido)cyclobutanecarbonyl)piperidine-3-carboxamide], 0.8 nM; for `CC(C)C(=O)NC1(C(=O)N2CCC[C@@H](C(=O)NCc3ccc(C#N)cc3OC(F)(F)F)C2)CC1` [Example Compound 26, (R)—N-(4-cyano-2-(trifluoromethoxy)benzyl)-1-(1-isobutylamidocyclopropanecarbonyl)piperidine-3-carboxamide], 5.8 nM.
Consider `CC(C)C(=O)NC1(C(=O)N2CCC[C@@H](C(=O)NCc3ccc(C#N)cc3OC(F)(F)F)C2)CCC1` [Example Compound 6, (R)—N-(4-cyano-2-(trifluoromethoxy)benzyl)-1-(1-isobutylamidocyclobutanecarbonyl)piperidine-3-carboxamide], for which the IC50 came out at 1 nM.
As to `CC(=O)N[C@@H](C(=O)N1CCC[C@@H](C(=O)NCc2ccc(C#N)cc2OC(F)(F)F)C1)C(C)(C)O` [Example Compound 30, (R)-1-((R)-2-acetamido-3-hydroxy-3-methylbutanoyl)-N-(4-cyano-2-(trifluoromethoxy)benzyl)piperidine-3-carboxamide], the IC50 was 1.4 nM.
As for `N#Cc1ccc(CNC(=O)[C@@H]2CCCN(C(=O)C3(C(F)(F)F)CC3)C2)c(OC(F)(F)F)c1` [Example Compound 4, (R)—N-(4-cyano-2-(trifluoromethoxy)benzyl)-1-(1-(trifluoromethyl)cyclopropanecarbonyl)piperidine-3-carboxamide], the IC50 was determined as 1 nM.
Take `N#Cc1ccc(CNC(=O)[C@@H]2CCCN(C(=O)C3(O)CCCCC3)C2)c(OC(F)(F)F)c1` [Example Compound 20, (R)—N-(4-cyano-2-(trifluoromethoxy)benzyl)-1-(1-hydroxycyclohexanecarbonyl)piperidine-3-carboxamide]: the IC50 came to 0.7 nM.
For the compound `CC[C@@H](NS(C)(=O)=O)C(=O)N1CCC[C@@H](C(=O)NCc2ccc(C#N)cc2OC(F)(F)F)C1` [Example Compound 22, (R)—N-(4-cyano-2-(trifluoromethoxy)benzyl)-1-((R)-2-(methylsulfonamido)butanoyl)piperidine-3-carboxamide], the IC50 amounted to 0.5 nM.
On to `O=C(NCc1ccc(Cl)cc1Cl)[C@@H]1CCCN(C(=O)C2(O)CCCCC2)C1` [Example Compound 38, (R)—N-(2,4-dichlorobenzyl)-1-(1-hydroxycyclohexanecarbonyl)piperidine-3-carboxamide], for which the IC50 stood at 2.1 nM.
Consider `CS(=O)(=O)NC1(C(=O)N2CCC[C@@H](C(=O)NCc3ccc(C(N)=O)cc3OC(F)(F)F)C2)CC1` [Example Compound 15], for which the IC50 worked out at 1.9 nM.
For `N#Cc1ccc(CNC(=O)[C@@H]2CCCN(C(=O)C3(NC(=O)CC4CC4)CC3)C2)c(OC(F)(F)F)c1` [Example Compound 35, (R)—N-(4-cyano-2-(trifluoromethoxy)benzyl)-1-(1-(2-cyclopropylacetamido)cyclopropanecarbonyl)piperidine-3-carboxamide] the value was 6.7 nM.
Turning to `CC(C)(NS(C)(=O)=O)C(=O)N1CCC[C@@H](C(=O)NCc2ccc(Cl)cc2OCC(F)(F)F)C1` [Example Compound 10, (R)—N-(4-chloro-2-(2,2,2-trifluoroethoxy)benzyl)-1-(2-methyl-2-(methylsulfonamido)propanoyl)piperidine-3-carboxamide], the IC50 was determined as 2.6 nM.
On to `CC(=O)NCC(=O)N1CCC[C@@H](C(=O)NCc2ccc(C#N)cc2OC(F)(F)F)C1` [Comparative Example Compound 2, (R)-1-(2-acetamidoacetyl)-N-(4-cyano-2-(trifluoromethoxy)benzyl)piperidine-3-carboxamide, reference compound], for which the IC50 was above 30 nM.
In the case of `CS(=O)(=O)NC1(C(=O)N2CCC[C@@H](C(=O)NCc3ccc(C#N)cc3OC(F)(F)F)C2)CCOCC1` [Example Compound 28, (R)—N-(4-cyano-2-(trifluoromethoxy)benzyl)-1-(4-(methylsulfonamido)tetrahydro-2H-pyran-4-carbonyl)piperidine-3-carboxamide], the IC50 is 2.3 nM.
As to `CC(C)[C@@H](NS(C)(=O)=O)C(=O)N1CCC[C@@H](C(=O)NCc2ccc(C#N)cc2OC(F)(F)F)C1` [Example Compound 12, (R)—N-(4-cyano-2-(trifluoromethoxy)benzyl)-1-((R)-3-methyl-2-(methylsulfonamido)butanoyl)piperidine-3-carboxamide], the IC50 was 0.3 nM.
Regarding `CC(=O)NC1(C(=O)N2CCC[C@@H](C(=O)NCc3ccc(C#N)cc3OC(F)(F)F)C2)CCC1` [Example Compound 9, (R)-1-(1-acetamidocyclobutanecarbonyl)-N-(4-cyano-2-(trifluoromethoxy)benzyl)piperidine-3-carboxamide], the IC50 amounted to 6.1 nM.
Turning to `CN(C1(C(=O)N2CCC[C@@H](C(=O)NCc3ccc(C#N)cc3OC(F)(F)F)C2)CC1)S(C)(=O)=O` [Example Compound 18, (R)—N-(4-cyano-2-(trifluoromethoxy)benzyl)-1-(1-(N-methylmethylsulfonamido)cyclopropanecarbonyl)piperidine-3-carboxamide], the IC50 stood at 1.6 nM.
`CC(=O)NC1(C(=O)N2CCC[C@@H](C(=O)NCc3ccc(C#N)cc3OC(F)(F)F)C2)CCCC1` [Example Compound 8, (R)-1-(1-acetamidocyclopentanecarbonyl)-N-(4-cyano-2-(trifluoromethoxy)benzyl)piperidine-3-carboxamide]: the IC50 was determined as 1.7 nM.
Take `CCC(=O)N[C@@H](C(=O)N1CCC[C@@H](C(=O)NCc2ccc(Cl)cc2Cl)C1)C(C)(C)O` [Example Compound 40, (R)—N-(2,4-dichlorobenzyl)-1-((R)-3-hydroxy-3-methyl-2-propionamidobutanoyl)piperidine-3-carboxamide]: the IC50 worked out at 0.7 nM.
`C[C@@H](NS(C)(=O)=O)C(=O)N1CCC[C@@H](C(=O)NCc2ccc(C#N)cc2OC(F)(F)F)C1` [Example Compound 25, (R)—N-(4-cyano-2-(trifluoromethoxy)benzyl)-1-((R)-2-(methylsulfonamido)propanoyl)piperidine-3-carboxamide]: the half-inhibitory concentration (IC50) was 1.8 nM.
